Experimental data: the NIST ThermoML archive (doi:10.1007/s10765-009-0602-6)
Numbers after ± are expanded uncertainties.

Assay: molar heat capacity at constant volume; xn = mol fraction of the nth substance listed
Details: Fluid (supercritical or subcritical phases), isochoric heat capacity, x1 = 0.2607

N [ammonia] + O
Details	molar heat capacity at constant volume [J/K/mol]
605.3 K, Mass density=329 kg/m3	82.4 ± 3.3
605.39 K, Mass density=147.43 kg/m3	55.23 ± 2.2
605.39 K, Mass density=329 kg/m3	83.73 ± 3.4
605.47 K, Mass density=147.43 kg/m3	52.57 ± 2.1
605.56 K, Mass density=329 kg/m3	84.16 ± 3.4
605.64 K, Mass density=147.43 kg/m3	54.75 ± 2.2
605.73 K, Mass density=147.43 kg/m3	55.07 ± 2.2
605.82 K, Mass density=147.43 kg/m3	55.82 ± 2.2
605.9 K, Mass density=147.43 kg/m3	54.48 ± 2.2
606.33 K, Mass density=195.99 kg/m3	62.19 ± 2.5
606.41 K, Mass density=195.99 kg/m3	62.19 ± 2.5
606.41 K, Mass density=376.89 kg/m3	80.52 ± 3.2
606.5 K, Mass density=195.99 kg/m3	62.44 ± 2.5
606.58 K, Mass density=376.89 kg/m3	81.48 ± 3.3
606.66 K, Mass density=195.99 kg/m3	62.01 ± 2.5
606.67 K, Mass density=376.89 kg/m3	83.04 ± 3.3
606.75 K, Mass density=195.99 kg/m3	62.31 ± 2.5
606.76 K, Mass density=376.89 kg/m3	82.08 ± 3.3
606.84 K, Mass density=195.99 kg/m3	62.12 ± 2.5
606.84 K, Mass density=376.89 kg/m3	79.68 ± 3.2
607.69 K, Mass density=342.18 kg/m3	76.36 ± 3.1
607.78 K, Mass density=309.95 kg/m3	83.5 ± 3.3
607.78 K, Mass density=342.18 kg/m3	81.1 ± 3.3
607.86 K, Mass density=342.18 kg/m3	78.56 ± 3.2
607.86 K, Mass density=376.89 kg/m3	79.35 ± 3.2
607.87 K, Mass density=309.95 kg/m3	80.85 ± 3.2
607.95 K, Mass density=309.95 kg/m3	86.43 ± 3.5
607.95 K, Mass density=342.18 kg/m3	76.04 ± 3.1
607.95 K, Mass density=376.89 kg/m3	80.25 ± 3.2
608.04 K, Mass density=309.95 kg/m3	82.99 ± 3.3
608.04 K, Mass density=376.89 kg/m3	78.87 ± 3.2
608.12 K, Mass density=376.89 kg/m3	77.04 ± 3.1
608.19 K, Mass density=160.07 kg/m3	52.92 ± 2.1
608.21 K, Mass density=309.95 kg/m3	84.23 ± 3.4
608.21 K, Mass density=376.89 kg/m3	75.92 ± 3
608.29 K, Mass density=376.89 kg/m3	79.42 ± 3.2
608.38 K, Mass density=376.89 kg/m3	76.18 ± 3.1
608.4 K, Mass density=160.07 kg/m3	53.56 ± 2.1
608.54 K, Mass density=160.07 kg/m3	51.75 ± 2.1
608.63 K, Mass density=160.07 kg/m3	53.4 ± 2.1
608.72 K, Mass density=160.07 kg/m3	52.1 ± 2.1
608.81 K, Mass density=160.07 kg/m3	52.48 ± 2.1
608.9 K, Mass density=160.07 kg/m3	52.35 ± 2.1
609.06 K, Mass density=195.99 kg/m3	62.14 ± 2.5
609.14 K, Mass density=195.99 kg/m3	62.71 ± 2.5
609.23 K, Mass density=195.99 kg/m3	62.28 ± 2.5
609.3 K, Mass density=195.99 kg/m3	63.31 ± 2.5
609.4 K, Mass density=195.99 kg/m3	62.65 ± 2.5
609.4 K, Mass density=320.33 kg/m3	87.43 ± 3.5
609.48 K, Mass density=195.99 kg/m3	63.19 ± 2.5
609.48 K, Mass density=294.44 kg/m3	91.17 ± 3.6
609.48 K, Mass density=320.33 kg/m3	84.26 ± 3.4
609.57 K, Mass density=294.44 kg/m3	89.27 ± 3.6
609.57 K, Mass density=320.33 kg/m3	85.97 ± 3.4
609.65 K, Mass density=294.44 kg/m3	87.71 ± 3.5
609.65 K, Mass density=308.35 kg/m3	76.86 ± 3.1
609.65 K, Mass density=320.33 kg/m3	80.69 ± 3.3
609.74 K, Mass density=195.99 kg/m3	62.31 ± 2.5
609.74 K, Mass density=294.44 kg/m3	89.93 ± 3.6
609.74 K, Mass density=320.33 kg/m3	83.43 ± 3.3
609.82 K, Mass density=294.44 kg/m3	89.02 ± 3.6
609.82 K, Mass density=308.35 kg/m3	74.71 ± 3
609.91 K, Mass density=308.35 kg/m3	78.67 ± 3.2
609.99 K, Mass density=308.35 kg/m3	77.82 ± 3.1
610.08 K, Mass density=308.35 kg/m3	76.77 ± 3.1
610.17 K, Mass density=312.91 kg/m3	84.03 ± 3.4
610.25 K, Mass density=312.91 kg/m3	83.02 ± 3.3
610.33 K, Mass density=312.91 kg/m3	81.99 ± 3.3
610.42 K, Mass density=311.19 kg/m3	84.41 ± 3.4
610.42 K, Mass density=312.91 kg/m3	81.69 ± 3.3
610.51 K, Mass density=311.19 kg/m3	81.05 ± 3.2
610.51 K, Mass density=312.91 kg/m3	81.85 ± 3.3
610.53 K, Mass density=311.19 kg/m3	82.17 ± 3.3
610.59 K, Mass density=307.35 kg/m3	83.84 ± 3.4
610.59 K, Mass density=312.91 kg/m3	80.77 ± 3.2
610.68 K, Mass density=307.35 kg/m3	83.61 ± 3.3
610.76 K, Mass density=307.35 kg/m3	85.1 ± 3.4
610.77 K, Mass density=311.19 kg/m3	80 ± 3.2
610.84 K, Mass density=311.19 kg/m3	82.42 ± 3.3
610.85 K, Mass density=307.35 kg/m3	81.92 ± 3.3
610.93 K, Mass density=307.35 kg/m3	80.84 ± 3.2
611.02 K, Mass density=301.94 kg/m3	85.7 ± 3.4
611.02 K, Mass density=307.35 kg/m3	83.41 ± 3.3
611.1 K, Mass density=301.94 kg/m3	86.38 ± 3.5
611.1 K, Mass density=307.35 kg/m3	81.26 ± 3.2
611.19 K, Mass density=299.79 kg/m3	81.78 ± 3.3
611.23 K, Mass density=301.94 kg/m3	84.69 ± 3.4
611.27 K, Mass density=299.79 kg/m3	82.1 ± 3.3
611.35 K, Mass density=230.31 kg/m3	80.27 ± 3.2
611.35 K, Mass density=301.94 kg/m3	83.16 ± 3.3
611.36 K, Mass density=299.79 kg/m3	80.3 ± 3.2
611.44 K, Mass density=230.31 kg/m3	81.01 ± 3.2
611.44 K, Mass density=299.79 kg/m3	81.57 ± 3.3
611.44 K, Mass density=301.94 kg/m3	83.38 ± 3.3
611.52 K, Mass density=230.31 kg/m3	77.59 ± 3.1
611.53 K, Mass density=299.79 kg/m3	80.94 ± 3.2
611.57 K, Mass density=230.31 kg/m3	78.33 ± 3.1
611.61 K, Mass density=299.79 kg/m3	79.86 ± 3.2
611.61 K, Mass density=301.94 kg/m3	85.13 ± 3.4
611.8 K, Mass density=230.31 kg/m3	77.07 ± 3.1
612.29 K, Mass density=342.18 kg/m3	78.23 ± 3.1
612.46 K, Mass density=376.89 kg/m3	76.4 ± 3.1
612.55 K, Mass density=342.18 kg/m3	77.21 ± 3.1
612.55 K, Mass density=376.89 kg/m3	78.49 ± 3.1
612.63 K, Mass density=342.18 kg/m3	78.71 ± 3.1
612.63 K, Mass density=376.89 kg/m3	74.83 ± 3
612.8 K, Mass density=342.18 kg/m3	78.26 ± 3.1
612.8 K, Mass density=376.89 kg/m3	75.58 ± 3
612.89 K, Mass density=376.89 kg/m3	77.5 ± 3.1
615.18 K, Mass density=160.07 kg/m3	57.18 ± 2.3
615.27 K, Mass density=160.07 kg/m3	57.36 ± 2.3
615.35 K, Mass density=160.07 kg/m3	59.17 ± 2.4
615.52 K, Mass density=160.07 kg/m3	57.77 ± 2.3
615.61 K, Mass density=160.07 kg/m3	57.15 ± 2.3
615.69 K, Mass density=160.07 kg/m3	58.32 ± 2.3
615.78 K, Mass density=160.07 kg/m3	59.81 ± 2.4
615.86 K, Mass density=311.19 kg/m3	80.59 ± 3.2
615.94 K, Mass density=311.19 kg/m3	82.26 ± 3.3
615.94 K, Mass density=312.91 kg/m3	84.14 ± 3.4
616.03 K, Mass density=311.19 kg/m3	78.26 ± 3.1
616.03 K, Mass density=312.91 kg/m3	81.62 ± 3.3
616.2 K, Mass density=309.95 kg/m3	81.9 ± 3.3
616.2 K, Mass density=311.19 kg/m3	79.08 ± 3.2
616.2 K, Mass density=312.91 kg/m3	78.12 ± 3.1
616.24 K, Mass density=329 kg/m3	79.1 ± 3.2
616.28 K, Mass density=309.95 kg/m3	81.26 ± 3.2
616.29 K, Mass density=312.91 kg/m3	77.14 ± 3.1
616.37 K, Mass density=309.95 kg/m3	80.5 ± 3.2
616.37 K, Mass density=311.19 kg/m3	78.05 ± 3.1
616.37 K, Mass density=312.91 kg/m3	80.69 ± 3.2
616.45 K, Mass density=309.95 kg/m3	78.62 ± 3.2
616.45 K, Mass density=329 kg/m3	75.46 ± 3
616.54 K, Mass density=329 kg/m3	77.16 ± 3.1
616.55 K, Mass density=309.95 kg/m3	82.93 ± 3.3
616.62 K, Mass density=329 kg/m3	76.27 ± 3.1
616.69 K, Mass density=299.79 kg/m3	82.29 ± 3.3
616.71 K, Mass density=329 kg/m3	76.77 ± 3.1
616.84 K, Mass density=299.79 kg/m3	80.34 ± 3.2
616.95 K, Mass density=299.79 kg/m3	81.41 ± 3.2
617.05 K, Mass density=299.79 kg/m3	82.13 ± 3.3
617.13 K, Mass density=299.79 kg/m3	79.98 ± 3.2
617.31 K, Mass density=299.79 kg/m3	80.5 ± 3.2
617.46 K, Mass density=299.79 kg/m3	80.93 ± 3.2
618.23 K, Mass density=342.18 kg/m3	78.08 ± 3.1
618.32 K, Mass density=342.18 kg/m3	77.48 ± 3.1
618.5 K, Mass density=342.18 kg/m3	78.3 ± 3.1
618.57 K, Mass density=342.18 kg/m3	78.49 ± 3.1
618.66 K, Mass density=342.18 kg/m3	76.77 ± 3.1
619.76 K, Mass density=297.6 kg/m3	76.26 ± 3.1
619.93 K, Mass density=297.6 kg/m3	75.1 ± 3
620.01 K, Mass density=297.6 kg/m3	77.64 ± 3.1
620.1 K, Mass density=297.6 kg/m3	76.82 ± 3.1
624.74 K, Mass density=160.07 kg/m3	61.66 ± 2.5
624.83 K, Mass density=160.07 kg/m3	63.49 ± 2.5
624.99 K, Mass density=160.07 kg/m3	62.99 ± 2.5
625.08 K, Mass density=160.07 kg/m3	60.95 ± 2.4
625.16 K, Mass density=160.07 kg/m3	64.25 ± 2.6
633.07 K, Mass density=160.07 kg/m3	67.64 ± 2.7
633.16 K, Mass density=160.07 kg/m3	68.71 ± 2.8
633.33 K, Mass density=160.07 kg/m3	67.18 ± 2.7
633.49 K, Mass density=160.07 kg/m3	68.49 ± 2.7
633.58 K, Mass density=160.07 kg/m3	67.41 ± 2.7
633.66 K, Mass density=160.07 kg/m3	67.98 ± 2.7
